Counter-ions that a name gives are not always drawn.

In one assay the test system is central nervous system. Briefly: Mouse observation procedure of S. Irwin, central nervous system depressant effects (tranquilizer). The following applies: male COBS mice, behavior and reflex depression, muscle relaxation, read-out: minimum effective dose (MED)/Kilogram of body weight. The format is in vivo. How it is done: The compounds of the invention are useful as tranquilizers because of their depressant effects on the central nervous system. The depressant effects on the central nervous system were evaluated according to the mouse observation procedure of S. Irwin, Psychopharmacologia, 13, 222 (1968). Male COBS mice are dosed with the drug, and its effects on behavior and reflex depression together with muscle relaxation determined by the degree of deviation from control scores, with activity expressed in terms of minimum effective dose (MED). The effectiveness of compounds of the invention as tranquilizers is illustrated in Table I below.

Assay [1] has as its system carrageenin-induced rat paw edema. Briefly: Carrageenin-induced rat paw edema antiinflammatory assay. It is filed as in vivo. Conditions: 200 mg/kg of body weight. The text has this:
The compounds of this invention are useful as antiinflammatory agents because of their ability to suppress inflammation in mammals. […] Exp. Biol. Med. III, 544 (1962)].

Assay [2] deals with spontaneous hypertensive rat. Nature of the assay: Lowering of blood pressure in the spontaneous hypertensive rat, indirect tail cuff method. It is filed as in vivo. Conditions: 100 mg/kg of body weight. How it is done: The compounds of this invention are also useful as antihypertensive agents because of their ability to lower blood pressure in mammals. […] 135. For example, at a dose of 100 mg/kg of body weight, the compounds shown in Table III below effect the corresponding decrease in systolic blood pressure.

For another assay, the system named is isolated rabbit atrium. Nature of the assay: Isolated rabbit atrium, increase in functional refractory period (antiarrhythmic). The following applies: Oryctolagus cuniculus; 10^-5 molar. How it is done: The compounds of the invention are useful as antiarrhythmic agents because of their ability to alleviate cardiac arrhythmias. […] 198] wherein the compounds effect an increase in the functional refractory period. Compounds are dissolved in Krebs-Henseleit solution, and the percent change in the functional refractory period is monitored with an oscilloscope. […] Similarly at a concentration of 10^-^6 molar 1-(3-dimethylaminopropyl)-2-(p-bromophenyl)-4,5,6,7-tetrahydroindole hydrochloride and 1-(2-methylaminoethyl)-2-phenyl-1,4,5,6,7,8-hexahydrocyclohepta[b]pyrrole hydrochloride each effect a 150% increase in the functional refractory period.

As for `CN(C)CCCn1c(-c2ccccc2)cc2c1CCc1ccccc1-2` [Example 31, hydrochloride], in the assay with central nervous system, the minimal effective dose came out at 20 mg/kg. For the same compound, the inhibition in vivo at 200 mg/kg in assay [1] was found to be 56%. Besides, the “decrease in systolic blood pressure” value in assay [2] is given as 30 mm Hg.
In the assay on isolated rabbit atrium, `CNCCCn1c(-c2ccccc2)cc2c1CCCCC2` [Example 39, 1-(3-methylaminopropyl)-2-phenyl-1,4,5,6,7,8-hexahydrocyclohepta[b]pyrrole . HCl] registered an activation at 10 µM of 214%. Further, the minimal effective dose with central nervous system is 50 mg/kg. The “decrease in systolic blood pressure” value in assay [2] worked out at 42 mm Hg.
The like results for `CN(C)CCCn1c(-c2ccccc2)cc2c1CCCCC2.Cl` [Example 40, 1-(3-dimethylaminopropyl)-2-phenyl-1,4,5,6,7,8-hexahydrocyclohepta[b]pyrrole hydrochloride] were, in that order, 275%, 25 mg/kg and 50 mm Hg.
`CCN(CC)CCCn1c(-c2ccccc2)cc2c1CCCCC2.Cl` [Example 41, 1-(3-diethylaminopropyl)-2-phenyl-1,4,5,6,7,8-hexahydrocyclohepta[b]pyrrole hydrochloride] showed an activation at 10 µM with isolated rabbit atrium of 264%. Also, the minimal effective dose in the assay on central nervous system was 50 mg/kg. This compound also had an inhibition in vivo at 200 mg/kg in assay [1] of 50%. In addition, the “decrease in systolic blood pressure” value in assay [2] came out at 49 mm Hg.

Values taken from US3997557A, “Substituted N-aminoalkylpyrroles” (American Hoechst Corporation, priority 1974, dated 1976).
